Source: US20070010488A1, “Compounds for modulating cell proliferation” (priority 2005, published 2007)
Values joined by “and” are separate entries in the source; they are usually repeats but may differ in a detail not shown here. Equal entries are not always repeated. Where two headings read alike, the source gives them in different places.

Experiments:
OCI-AML2 (AML) = test: Alamar Blue cell viability assay, OCI-AML2; assay type: cell-based; details: Homo sapiens, 72 hours
Description: (§1) Each test compound was weighed between the ranges of 0.5-2.0 mg, and then dissolved in a specified volume of DMSO to produce a solution of 10 mM. Appropriate dilutions in cell culture medium were made to produce a stock solution of 400 μM. All subsequent dilutions were also done in cell culture medium. This stock solution was then used for further dilutions to produce the initial concentration to be added to the 50 μL and 450 μL of cells in the 96-well and the 48-well microtiter plates, respectively:
(§2) The initial concentration for cells that were cultured in 50 μL 96-well plates was 40 μM. Once 50 μL of this test solution was added to the cells, this then produced a final dilution of 1:2, giving the desired concentration of 20 μM. Further 1:2 dilutions were made until the desired concentration of […] was reached.
(§3) Compound 1 was used as positive control at concentrations of 1 μM and 3 μM. […] C1 and OCI-AML2 and RPMI8226 cell culture media were assayed by addition of 20 μL of Alamar Blue reagent and incubated for 4 hours before reading. […]
(§4) 50 μL of cell culture medium containing the test compound was added to each well twenty four hours after seeding. […] Proliferation of cells was assessed using the fluorimetric Alamar Blue (CellTiter Blue) test and cell counting.
(§5) For the Alamar Blue assay, untreated cells were used as growth controls. Data were assessed in duplicates. […]

RS4-11 (B-ALL) = test: Alamar Blue cell viability assay, RS4-11; assay type: cell-based; details: Homo sapiens, 72 hours
Description: as §1
(§6) The initial concentration for cells that were cultured in 50 μL 96-well plates was 40 μM. […]
as §4
(§7) For the Alamar Blue assay, untreated cells were used as growth controls. Data were assessed in duplicates. […] The Alamar Blue cell viability assay was used to determine the IC50 concentrations for the inhibition of cell proliferation or induction of cell death by the ets articles as well as the reference Compound A. Primary data from all assays were plotted for each test compound, cell system and test concentration, with the y-axis representing the readout for cell proliferation/viability and the x-axis representing the compound concentration (μM). […]

K562 (CML) = test: Trypan Blue Dye Exclusion and Cell Counting Assay, K562; assay type: cell-based; details: Homo sapiens, 72 hours
Description: as §1, §2
(§8) Compound 1 was used as positive control at concentrations of 1 μM and 3 μM. Cells were incubated with the test compounds for 72 hours. C1 and OCI-AML2 and RPMI8226 cell culture media were assayed by addition of 20 μL of Alamar Blue reagent and incubated for 4 hours before reading. Cell counting was utilised for K562 and DAUDI. [drawing 13] […]
as §4

SUP-B15 (B-ALL) = test: Alamar Blue cell viability assay, SUP-B15; assay type: cell-based; details: Homo sapiens, 72 hours
Description: as §1, §6, §4, §7

MOLT-4 (T-ALL) = test: Alamar Blue cell viability assay, MOLT-4; assay type: cell-based; details: Homo sapiens, 72 hours
Description: as §1, §6, §4, §7

[1] = test system: DAUDI (non-Hodgkin lymphoma); test: Trypan Blue Dye Exclusion and Cell Counting Assay, DAUDI; assay type: cell-based; details: Homo sapiens, 72 hours
Description: as §1, §2, §8, §4

KASUMI-1 (AML) = test: Alamar Blue cell viability assay, KASUMI-1; assay type: cell-based; details: Homo sapiens, 72 hours
Description: as §1, §6, §4, §7

C1 (T-ALL) = test: Alamar Blue cell viability assay, C1; assay type: cell-based; details: Homo sapiens, 72 hours
Description: as §1, §2, §3, §4, §5

[2] = Mouse pharmacokinetics, intravenous and oral, plasma LC/MSMS; assay type: in vivo; details: Mice CD1; for bioavailability: read-out: Bioavailability factor
Description: Compound A (Stored at ca. +5° C.)
Formulation preparation for oral routes: […]
Animal Phase: • Species: Mice CD1 (supplied from Harlan, France) • Routes tested: Intravenous (Mice Nos.39 to 52 incl.), oral low dose (Mice Nos.53 to 63 incl.) and oral high dose (Mice Nos.65 to 76 incl.) • Animals were not fasted.
Times of blood sampling performed from the abdominal aorta (2 animals per time point): • Intravenous route (IV): 5 min, 15 min, 30 min, 1 h, 2 h, 6 h and 24 h • Oral routes (PO): 15 min, 30 min, 1 h, 3 h, 6 h and 24 h
Plasma was harvested by centrifugation of blood at 3500 g for 10 minutes at ca. +5° C.
Plasma was stored at ca. −20° C. until analysis.
Analytical method: LC/MSMS after extraction
Calibration undertaken in plasma (5 levels in mice, twice injected, ranging from 10 to 1000 ng.mL^−1)
HPLC Conditions: • Colonne: Zorbax C18 50×2.1 mm, 3.5 μm • Filter: A102X 5 μm • Injected volume: 20 μL • Mobile phase flow: 0.1 mL.min^−1 • Autosampler temperature: ca. +5° C. • Oven temperature: ca. +30° C. • Run time: 10 min • Mobile phase: deionized water with 0.1% formic acid/methanol with 0.1% formic acid; 30:70 v/v (isocratic) • Retention time: ca. 2.1 min
Extraction Method for Plasma Sample: • 50 μL of plasma combined with 100 μL of methanol • Vortexed a few seconds • Centrifuged 3 min at 13 000 rpm at ca. +5° C. • Diluted 50 μL of the supernatant with 50 μL of deionized water in a HPLC vial for injection • Vortexed a few seconds • Injected into the HPLC/MSMS system Extraction Method for Plasma Calibration Sample: • 50 μL of plasma sample combined with 100 μL of spiking solution • Vortexed a few seconds • Centrifuged 3 min at 13 000 rpm at ca. +5° C. • Diluted 50 μL of the supernatant with 50μL of deionized water in a HPLC vial for injection • Vortexed a few seconds • Injected into the HPLC/MSMS system Results: Animal and Analytical Phase Results: […]

SKM-1 (AML) = test: Alamar Blue cell viability assay, SKM-1; assay type: cell-based; details: Homo sapiens, 72 hours
Description: as §1, §6, §4, §7

MOLM-13 (AML) = test: Alamar Blue cell viability assay, MOLM-13; assay type: cell-based; details: Homo sapiens, 72 hours
Description: as §1, §6, §4, §7

CCRF-CEM (T-ALL) = test: Alamar Blue cell viability assay, CCRF-CEM; assay type: cell-based; details: Homo sapiens, 72 hours
Description: as §1, §6, §4, §7

PEER (B-ALL) = test: Alamar Blue cell viability assay, PEER; assay type: cell-based; details: Homo sapiens, 72 hours
Description: as §1, §6, §4, §7

RPMI8226 (myeloma) = test: Alamar Blue cell viability assay, RPMI8226; assay type: cell-based; details: Homo sapiens, RPMI-8226, 72 hours
Description: as §1, §2, §3, §4, §5

MV4-11 (AML) = test: Alamar Blue cell viability assay, MV4-11; assay type: cell-based; details: Homo sapiens, 72 hours
Description: as §1, §6, §4, §7

[3] = mouse, plasma, intravenous 3.83 mg/kg
[4] = mouse, plasma, oral high dose 50.2 mg/kg
[5] = mouse, plasma, oral low dose 10.0 mg/kg

IC50 (OCI-AML2 (AML)): 1030 nM | IC50 (RS4-11 (B-ALL)): 450 nM | IC50 (K562 (CML)): 2500 nM | IC50 (MOLT-4 (T-ALL)): 970 nM | IC50 [1]: 550 nM | concentration at 0.083 h ([2]; CD1, mouse, plasma, iv, 3.83 mg/kg, intravenous 3.83 mg/kg, 0.083 h, individual mice, read-out: Plasma levels): 200 ng/mL | concentration at 0.25 h ([2]; CD1, mouse, plasma, iv, 3.83 mg/kg, intravenous 3.83 mg/kg, 0.25 h, individual mice, read-out: Plasma levels): 64.4 ng/mL | concentration at 0.5 h ([2]; CD1, mouse, plasma, iv, 3.83 mg/kg, intravenous 3.83 mg/kg, 0.5 h, individual mice, read-out: Plasma levels): 57.5 ng/mL | concentration at 2 h ([2]; CD1, mouse, plasma, iv, 3.83 mg/kg, intravenous 3.83 mg/kg, 2 h, individual mice, read-out: Plasma levels): 17.9 ng/mL | concentration at 0.5 h ([2]; CD1, mouse, plasma, po, 10 mg/kg, oral low dose 10.0 mg/kg, 0.5 h, individual mice, read-out: Plasma levels): 71.7 ng/mL | concentration at 1 h ([2]; CD1, mouse, plasma, po, 10 mg/kg, oral low dose 10.0 mg/kg, 1 h, individual mice, read-out: Plasma levels): 83.5 ng/mL | concentration at 3 h ([2]; CD1, mouse, plasma, po, 10 mg/kg, oral low dose 10.0 mg/kg, 3 h, individual mice, read-out: Plasma levels): 41.7 ng/mL | concentration at 24 h ([2]; CD1, mouse, plasma, po, 10 mg/kg, oral low dose 10.0 mg/kg, 24 h, individual mice, LOQ 10 ng · mL^−1, ND: Not Detectable, read-out: Plasma levels): 5.8 ng/mL | concentration at 0.25 h ([2]; CD1, mouse, plasma, po, 50.2 mg/kg, oral high dose 50.2 mg/kg, 0.25 h, individual mice, read-out: Plasma levels): 819 ng/mL | concentration at 0.5 h ([2]; CD1, mouse, plasma, po, 50.2 mg/kg, oral high dose 50.2 mg/kg, 0.5 h, individual mice, read-out: Plasma levels): 434 ng/mL | concentration at 1 h ([2]; CD1, mouse, plasma, po, 50.2 mg/kg, oral high dose 50.2 mg/kg, 1 h, individual mice, read-out: Plasma levels): 175 ng/mL | concentration at 3 h ([2]; CD1, mouse, plasma, po, 50.2 mg/kg, oral high dose 50.2 mg/kg, 3 h, individual mice, read-out: Plasma levels): 137 ng/mL | % AUCextra ([2]; intravenous 3.83 mg/kg): 3.2% | Plasma levels ([2]; intravenous 3.83 mg/kg, 0.083 h, individual mice, 3.83 mg/kg): 333.91 ng/mL | Plasma levels ([2]; intravenous 3.83 mg/kg, 0.25 h, individual mice, 3.83 mg/kg): 85.28 ng/mL | Plasma levels ([2]; intravenous 3.83 mg/kg, 0.5 h, individual mice, 3.83 mg/kg): 69.56 ng/mL | Plasma levels ([2]; intravenous 3.83 mg/kg, 1 h, individual mice, 3.83 mg/kg): 80.73 ng/mL and 39.25 ng/mL | Plasma levels ([2]; intravenous 3.83 mg/kg, 2 h, individual mice, 3.83 mg/kg): 12.9 ng/mL | Plasma levels ([2]; intravenous 3.83 mg/kg, 6 h, individual mice, LOQ 10 ng · mL^−1, 3.83 mg/kg): 14.94 ng/mL and 7.29 ng/mL | Plasma levels ([2]; intravenous 3.83 mg/kg, 24 h, individual mice, LOQ 10 ng · mL^−1, 3.83 mg/kg): 1.68 ng/mL and 0.36 ng/mL | % AUCextra ([2]; oral high dose 50.2 mg/kg): 0.57% | Plasma levels ([2]; oral high dose 50.2 mg/kg, 0.25 h, individual mice, 50.2 mg/kg): 444.58 ng/mL | Plasma levels ([2]; oral high dose 50.2 mg/kg, 0.5 h, individual mice, 50.2 mg/kg): 393.99 ng/mL | Plasma levels ([2]; oral high dose 50.2 mg/kg, 1 h, individual mice, 50.2 mg/kg): 213.68 ng/mL | Plasma levels ([2]; oral high dose 50.2 mg/kg, 3 h, individual mice, 50.2 mg/kg): 160.65 ng/mL | Plasma levels ([2]; oral high dose 50.2 mg/kg, 6 h, individual mice, 50.2 mg/kg): 23.07 ng/mL and 137.34 ng/mL | Plasma levels ([2]; oral high dose 50.2 mg/kg, 24 h, individual mice, LOQ 10 ng · mL^−1, 50.2 mg/kg): 2.36 ng/mL and 1.04 ng/mL | % AUCextra ([2]; oral low dose 10.0 mg/kg): 4.1% | Plasma levels ([2]; oral low dose 10.0 mg/kg, 0.25 h, individual mice, 10 mg/kg): 67.54 ng/mL and 178.37 ng/mL | Plasma levels ([2]; oral low dose 10.0 mg/kg, 0.5 h, individual mice, 10 mg/kg): 83.39 ng/mL | Plasma levels ([2]; oral low dose 10.0 mg/kg, 1 h, individual mice, 10 mg/kg): 70.35 ng/mL | Plasma levels ([2]; oral low dose 10.0 mg/kg, 3 h, individual mice, 10 mg/kg): 40.47 ng/mL | Plasma levels ([2]; oral low dose 10.0 mg/kg, 6 h, individual mice, LOQ 10 ng · mL^−1, 10 mg/kg): 2.67 ng/mL and 6.30 ng/mL | AUC [2, 3]: 254 ng·h/mL | AUC(0-t) [2, 3]: 246 ng·h/mL | Vd [2, 3]: 119 L/kg | clearance ([2]; mouse, plasma, intravenous 3.83 mg/kg, read-out: Total Clearance (converted)): 251 mL/min/kg | half-life ([2]; mouse, plasma, intravenous 3.83 mg/kg, read-out: T½ (converted)): 330 min | AUC [2, 4]: 1400 ng·h/mL | AUC(0-t) [2, 4]: 1390 ng·h/mL | Cmax [2, 4]: 632 ng/mL | Tmax [2, 4]: 15 min | bioavailability ([2]; mouse, plasma, oral high dose 50.2 mg/kg vs intravenous): 43.4% | AUC [2, 5]: 321 ng·h/mL | AUC(0-t) [2, 5]: 308 ng·h/mL | Cmax [2, 5]: 123 ng/mL | Tmax [2, 5]: 15 min | bioavailability ([2]; mouse, plasma, oral low dose 10.0 mg/kg vs intravenous): 48% | IC50 (SKM-1 (AML)): 560 nM | IC50 (MOLM-13 (AML)): 1900 nM | IC50 (CCRF-CEM (T-ALL)): 1180 nM | IC50 (RPMI8226 (myeloma)): 1500 nM | IC50 (MV4-11 (AML)): 220 nM
Compound: CCN1C/C(=C\c2cc(OC)c(OC)c(OC)c2)C(=O)/C(=C/c2cc(OC)c(OC)c(OC)c2)C1 [Compound A]
IC50 (SUP-B15 (B-ALL)): 1030 nM | IC50 (KASUMI-1 (AML)): 560 nM | IC50 (C1 (T-ALL)): 180 nM | IC50 (PEER (B-ALL)): 720 nM
